Assay results as given in patent US10285994B2, “Method of preventing or treating osteoporosis by neddylation inhibitor” (Chang Gung University, priority 2017, dated 2019).

Experiments:
[1] = tested on: ovariectomized (OVX) mice; assay: Three-point bending test of femurs of OVX + sRANKL mice; type: in vivo, mouse; conditions: 10 mg/kg i.p. once daily for 2 weeks
Text: FIGS. 7A-7D are histograms respectively depicting the mechanical properties of femurs in control, OVX, OVX+RANKL, and OVX+RANKL+MLN4924 groups according to example 5.2 of the present disclosure, including modulus (FIG. 7A), strain at break (FIG. 7B), stress at yield (FIG. 7C), and load at break (FIG. 7D). Values are expressed as mean±SD, N=6 per group. *p<0.05; **p<0.01.
All experimental procedures were approved by the Institutional Animal Care and Use Committee of the Chang Gung Memorial Hospital at Chiayi and complied with the Guideline for the Care and Use of Laboratory Animals available through the National Academy of Sciences (IACUC number: 2013100102 and 2015103001). All efforts were made to minimize the suffering of the animals. C57BL/6J female mice (6-8 weeks old; obtained from BioLasco in Taiwan) were operated ovariectomy surgery (OVX). 48 hours later of OVX operation, sRANKL (1 mg/kg) or saline was injected intraperitoneally once daily for two days followed by intraperitoneal injection of MLN4924 (10 mg/kg) once daily for 2 weeks. Mice were sacrificed with CO2 asphyxiation, and the tibias and femurs were isolated therefrom. The tibias were subject to histochemistry assay, and the femurs were subject to bending test and tomographic analysis by MTS (Testresources, Shakopee, Minn.) and Skyscan 1272 (Bruker, Kontich, Belgium), respectively. Serum levels of cross linked C-telopeptide of type I collagen (CTX-1) (CEA665Mu) was measured by specific ELISA kit (USCN life science incorporation, Wuhan, Hubei, China).
The femurs were tested to failure by three-point bending on an MTS Synergie 200 (Testresources, Shakopee, Minn.). The speed of load application was set as 1 mm/min with preload of 1N, load cell of 500N, settling time of 30 seconds and distance between the points of 10 mm. Force-displacement data were plotted from the structural properties, including modulus, load at break, stress at yield and strain at yield.
Bone loss results in bone fragile, thus rendering bone being easier to break. In this example, mice were first treated with OVX or OVX+sRANKL to cause bone loss, and then MLN4924 was administered. The femurs of mice were then subject to shaft fracture testing by three-point bending so as to evaluate the biomechanical properties thereof.

[2] = tested on: RAW264.7 cells; type: cell-based, mouse
Experimental: (§1) FIGS. 2A-2D are data collected from RAW264.7 cells respectively incubated in the medium containing sRANKL (50 ng/ml) and specified concentrations of MLN4924 for 7 days according to example 1.2 of the present disclosure. FIG. 2A: the photographs of TRAP staining depicting the differentiation of osteoclasts from RAW264.7 cells. FIG. 2B: after the differentiation of osteoclasts in Corning Osteo Surface, the cells were removed, and the resorbed areas for confirming osteoclast activity were analyzed by 1% toluidine blue staining. FIG. 2C: the culture medium is subject to Biovision Cathepsin K Activity Fluorometric Assay Kit for the analysis of cathepsin K activity. FIG. 2D: the effect of effective doses of MLN4924 on the viability of RAW264.7 cells is evaluated by MTT assay. Scale bar represents 100 μm. Data are expressed as mean±SD where *p<0.05.
In addition to BMMs, the effect of MLN4924 on macrophage cell line RAW264.7 cells was also investigated. The RAW264.7 cells were cultured in the medium containing sRANKL and MLN4924 for 7 days, then subjected to osteoclast formation evaluation by TRAP staining.

[3] = tested on: cathepsin K; assay: Cathepsin K activity fluorometric assay, BMMs; type: cell-based, mouse; conditions: FIG. 1C
Experimental: (§2) FIGS. 1A-1D are data collected from primary mouse bone marrow-derived macrophages (BMMs) respectively incubated in the medium containing the soluble recombinant RANKL (sRANKL, 50 ng/ml), macrophage colony-stimulating factor (M-CSF, 40 ng/ml) and specified concentrations of MLN4924 for 7 days according to example 1.1 of the present disclosure. FIG. 1A: the photographs of TRAP staining depicting the differentiation of osteoclasts from BMMs. FIG. 1B: after the differentiation of osteoclasts in Corning Osteo Surface (a synthetic 3-dimensional structure that mimics in vivo bone for in vitro bone cell assays), the cells were removed, and the resorbed areas for confirming osteoclast activity were analyzed by 1% toluidine blue staining. FIG. 1C: the culture medium is subject to Biovision Cathepsin K Activity Fluorometric Assay Kit for the analysis of cathepsin K activity. FIG. 1D: the effect of effective doses of MLN4924 on the viability of BMMs is evaluated by MTT assay. Scale bar represents 100 μm. Data are expressed as mean±SD where *p<0.05; **p<0.01.
The pre-osteoclasts and RAW264.7 cells were seeded into Corning Osteo Surface Assay 96-wells plate (Corning, Kennebunk, Me.). Twenty-four hours later, the cells were treated with sRANKL (50 ng/ml) and specified concentrations of MLN4924 for 7 days. […]

[4] = tested on: cathepsin K; assay: Cathepsin K activity fluorometric assay, RAW264.7 cells; type: cell-based, mouse; conditions: sRANKL-activated RAW264.7 cells, 7 days, FIG. 2C
Experimental: as §1
The pre-osteoclasts and RAW264.7 cells were seeded into Corning Osteo Surface Assay 96-wells plate (Corning, Kennebunk, Me.). Twenty-four hours later, the cells were treated with sRANKL (50 ng/ml) and specified concentrations of MLN4924 for 7 days. The cells were then harvested so as to evaluate the cathepsin K activity by use of Biovision Cathepsin K Activity Fluorometric Assay Kit (Biovision, Milpitas, Calif.). The Corning Osteo surface was stained with 1% toluidine blue for 24 hours and washed with deionized water twice. […]

[5] = tested on: primary mouse bone marrow-derived macrophages (BMMs); assay: Viability of BMMs (WST / MTT assay); type: cell-based; conditions: doses that inhibit osteoclast differentiation, FIG. 1D
Experimental: as §2, with “**p<0.01. Next, the WST assay was used to determine whether the suppressed osteoclastogenesis by MLN4924 was caused by cytotoxicity.” for “**p<0.01.”

NS(=O)(=O)OC[C@@H]1C[C@@H](n2ccc3c(N[C@H]4CCc5ccccc54)ncnc32)C[C@@H]1O [MLN4924, (1S,2S,4R)-4-(4-((1S)-2,3-Dihydro-1H-inden-1-ylamino)-7H-pyrrolo(2,3-d)pyrimidin-7-yl)-2-hydroxycyclopentyl) methyl sulphamate]
femur modulus ([1]; FIG. 7A): prevented the levels of these parameters from dropping | femur strain at break ([1]; FIG. 7B): prevented the levels of these parameters from dropping | femur stress at yield ([1]; FIG. 7C): prevented the levels of these parameters from dropping | femur load at break ([1]; FIG. 7D): prevented the levels of these parameters from dropping | cell viability of RAW264.7 cells [2]: did not affect cell viability | basal activity of cathepsin K ([3]; MLN4924 alone without sRANKL): did not affect the basal activity of cathepsin K in macrophages | activity of cathepsin K versus sRANKL group ([3]; with sRANKL): significantly reduced the activity of cathepsin K | osteolytic enzyme cathepsin K activity of osteoclasts [4]: significantly inhibited | cytotoxicity / viability of BMMs [5]: no cytotoxic effects at doses that effectively inhibited osteoclast differentiation
